From patent US5134138A, “Phenacylpyridiniothiocephalosporins” (Shionogi & Co., Ltd., priority 1989, dated 1992)
Values after ≈ are worked out from the molar mass of the structure shown. Like-named read-outs stand apart in the source and are kept apart here. One block for each compound: values may come before it.

Tests used:
[1] = system: Pseudomonas aeruginosa SR 5018; test: minimal inhibitory concentration (agar plate two-fold dilution), ofloxacin resistant Pseudomonas aeruginosa SR 5018; assay type: cell-based; conditions: SR5018
Protocol: (§1) 3) The said sodium salt (1 g) prepared by neutralizing under sterile condition is dissolved in distilled water for injection (4 g) and administered to a patient suffering from sensitive pseudomonal bacteria twice a day intravenously to treat this infection. The free acid or sodium salt is dissolved in 0.01N-aqueous sodium hydrogen carbonate and tested for minimal inhibitory concentration against gram-negative bacteria according to a method of Japan Society of Chemotherapy on an agar plate by two-fold dilution method.

Escherichia coli SR 5082 = test: minimal inhibitory concentration (agar plate two-fold dilution), Escherichia coli SR 5082; assay type: cell-based; conditions: SR5082
Protocol: as §1

[2] = system: Pseudomonas aeruginosa SR 24; test: minimal inhibitory concentration (agar plate two-fold dilution), Pseudomonas aeruginosa SR 24; assay type: cell-based
Protocol: as §1
The minimal inhibitory concentration of Compound (I) where R^1 is 2-(2-amino-4-thiazolyl)-2-(1-carboxy-1-methylethoxyimino)acetamido, R^2 is hydrogen, R^3 is hydrogen, R^4 is 3,4-dihydroxyphenyl, R^5 is methylene, R^6 combined with Y- is negative charge, and X is sulfur against Pseudomonas aeruginosa SR 24 is 0.2 μg/ml. By altering the groups with the following ones to vary the activities as listed below.

[3] = system: Pseudomonas aeruginosa SR 24; test: 50% effective dose preventing lethal Pseudomonas aeruginosa SR 24 mouse infection; assay type: in vivo
Excerpt: (§2) The compound is highly safe in the case of intravenous injection to various animals.

mice = test: safety, intravenous injection in mice; assay type: in vivo; conditions: up to 1 g/kg
Excerpt: as §2

rabbits = assay type: in vivo; conditions: up to 1 g/kg
Excerpt: as §2

various animals = test: safety, intravenous injection to various animals; assay type: in vivo
Excerpt: as §2

[4] = ofloxacin resistant Pseudomonas aeruginosa SR 5018, read-out: MIC
[5] = SR24, Pseudomonas aeruginosa SR 24, Experiment 1, read-out: minimal inhibitory concentration

Compound: CC(C)(ON=C(C(=O)N[C@@H]1C(=O)N2C(C(=O)[O-])=C(C[n+]3ccc4cc(O)c(O)cc4c3)CS[C@H]12)c1csc(N)n1)C(=O)O [BO-1341, 3-(6,7-dihydroxyisoquinolinio)methyl-7β-(2-(2-aminothiazol-4-yl)-2-(1-carboxy-1-methylethoxyimino)acetamido)-3-cephem-4-carboxylate, reference compound]
MIC [1, 4]: 0.4 µg/mL (≈ 0.636 µM)
MIC (Escherichia coli SR 5082): 1.6 µg/mL (≈ 2.55 µM)

Compound: CON=C(C(=O)N[C@@H]1C(=O)N2C(C(=O)[O-])=C(C[N+]34CCC(C(N)=O)(CC3)CC4)CS[C@H]12)c1nsc(N)n1 [E-1040, 3-(4-carbamoylquinuclidinio)methyl-7β-[2-(5-amino-1,2,4-thiadiazol-3-yl)-2-methoxyimino]-acetamido-3-cephem-4-carboxylate, reference compound]
MIC ([1]; Pseudomonas aeruginosa): 6.3 µg/mL (≈ 11.4 µM)

Compound: O=C(Cc1ccccc1)N[C@@H]1C(=O)N2C(C(=O)[O-])=C(CSc3cc[n+](CC(=O)c4ccc(O)c(O)c4)cc3)CS[C@H]12 [No. 1]
MIC [2, 5]: > 100 µg/mL

Compound: CC(C)(ON=C(C(=O)N[C@@H]1C(=O)N2C(C(=O)[O-])=C(CSc3cc[n+](CC(=O)c4ccc(O)c(O)c4)cc3)CS[C@H]12)c1csc(N)n1)C(=O)O [No. 8]
MIC [2, 5]: 0.2 µg/mL (≈ 0.274 µM)
ED50 ([3]; Pseudomonas aeruginosa, SR24, read-out: ED50 (50% effective dose preventing lethal infection), Pseudomonas aeruginosa SR 24, mouse infection): 1.35 to 6.27 mg/kg

Compound: CC(C)(ON=C(C(=O)N[C@@H]1C(=O)N2C(C(=O)[O-])=C(CSc3cc[n+](CC(=O)c4ccc(O)c(O)c4)cc3)C[S+]([O-])[C@H]12)c1csc(N)n1)C(=O)O (some centres unmarked) [No. 9]
times activity versus E-1040 (MIC) ([1]; Pseudomonas aeruginosa): 63 times
times activity versus ceftazidime (MIC) ([1]; Pseudomonas aeruginosa): 250 times
MIC [1, 4]: 0.1 µg/mL (≈ 0.134 µM)
MIC ([2]; Pseudomonas aeruginosa SR 24, listed as representative compound (I)): 0.1 µg/mL (≈ 0.134 µM)
MIC [2, 5]: 0.1 µg/mL (≈ 0.134 µM)
MIC ([2]; SR24, Pseudomonas aeruginosa SR 24, read-out: MIC): 0.1 µg/mL (≈ 0.134 µM)
MIC (Escherichia coli SR 5082): 0.2 µg/mL (≈ 0.269 µM)
ED50 (50% effective dose preventing lethal infection) ([3]; Pseudomonas aeruginosa SR 24, mouse infection, listed as Compound (I) where X is sulfinyl): 1.35 mg/kg
death (mice): no death
toxic effect as Antabuse-like activity (mice): no death nor toxic effect as Antabuse-like activity
renal toxicity (rabbits): did not show renal toxicity
safety (various animals): highly safe

Compound: CC(=O)Oc1ccc(C(=O)C[n+]2ccc(SCC3=C(C(=O)[O-])N4C(=O)[C@@H](NC(=O)C(=NOC(C)(C)C(=O)O)c5csc(N)n5)[C@H]4SC3)cc2)cc1OC(C)=O [No. 11]
MIC [2, 5]: 0.025 µg/mL (≈ 0.0308 µM)

Compound: CC(C)(C=C(C(=O)N[C@@H]1C(=O)N2C(C(=O)[O-])=C(CSc3cc[n+](CC(=O)c4ccc(O)c(O)c4)cc3)CS[C@H]12)c1csc(N)n1)C(=O)O [No. 27]
MIC [2, 5]: 0.1 µg/mL (≈ 0.14 µM)

Compound: CC(C)(O/N=C(\C(=O)N[C@@H]1C(=O)N2C(C(=O)[O-])=C(C[n+]3ccccc3)CS[C@H]12)c1csc(N)n1)C(=O)O [ceftazidime, reference compound]
MIC ([1]; Pseudomonas aeruginosa): 25 µg/mL (≈ 45.7 µM)

The remaining lines, values ahead:

MIC [2, 5]: 0.4 µg/mL (≈ 0.609 µM)
Compound: CON=C(C(=O)N[C@@H]1C(=O)N2C(C(=O)[O-])=C(CSc3cc[n+](CC(=O)c4ccc(O)c(O)c4)cc3)CS[C@H]12)c1csc(N)n1 [No. 5]

MIC [2, 5]: 0.39 µg/mL (≈ 0.535 µM)
Compound: CC(C)(ON=C(C(=O)N[C@@H]1C(=O)N2C(C(=O)[O-])=C(CSc3cc[n+](CC(=O)c4cccc(O)c4O)cc3)CS[C@H]12)c1csc(N)n1)C(=O)O [No. 7]

MIC [2, 5]: 0.2 µg/mL (≈ 0.281 µM)
Compound: CC(C)(ON=C(C(=O)N[C@@H]1C(=O)N2C(C(=O)[O-])=C(CSc3cc[n+](CC(=O)c4ccc(O)c(O)c4)cc3)CO[C@H]12)c1csc(N)n1)C(=O)O [No. 13]

MIC [2, 5]: 0.05 µg/mL (≈ 0.0673 µM)
Compound: Cc1cc(O)c(O)cc1C(=O)C[n+]1ccc(SCC2=C(C(=O)[O-])N3C(=O)[C@@H](NC(=O)C(=NOC(C)(C)C(=O)O)c4csc(N)n4)[C@H]3SC2)cc1 [No. 14]

MIC [2, 5]: 0.025 µg/mL (≈ 0.0328 µM)
Compound: CC(C)(ON=C(C(=O)N[C@@H]1C(=O)N2C(C(=O)[O-])=C(CSc3cc[n+](CC(=O)c4cc(O)c(O)c(Cl)c4)cc3)CS[C@H]12)c1csc(N)n1)C(=O)O [No. 18]

MIC [2, 5]: 0.025 µg/mL (≈ 0.0328 µM)
Compound: CC(C)(ON=C(C(=O)N[C@@H]1C(=O)N2C(C(=O)[O-])=C(CSc3cc[n+](CC(=O)c4cc(O)c(O)cc4Cl)cc3)CS[C@H]12)c1csc(N)n1)C(=O)O [No. 22 (3,4-OH-6-Cl)]

MIC [2, 5]: 0.025 µg/mL (≈ 0.0337 µM)
Compound: CC(C(=O)c1ccc(O)c(O)c1)[n+]1ccc(SCC2=C(C(=O)[O-])N3C(=O)[C@@H](NC(=O)C(=NOC(C)(C)C(=O)O)c4csc(N)n4)[C@H]3SC2)cc1 (some centres unmarked) [No. 23]

MIC [2, 5]: 0.05 µg/mL (≈ 0.065 µM)
Compound: CC(C)(ON=C(C(=O)N[C@@H]1C(=O)N2C(C(=O)[O-])=C(CSc3cc[n+](CC(=O)c4ccc(O)c(O)c4)c4c3CCC4)CS[C@H]12)c1csc(N)n1)C(=O)O [No. 25]
